The record followed here is US20220323406A1, “METHODS AND COMPOSITIONS FOR DIFFERENTIATING STEM CELLS” (Massachusetts Institute of Technology, priority 2019, published 2022).

In assay [1] the test system is ENR+CD organoids (ISC to Paneth cell differentiation). In words: Primary screen: basal (non-stimulated) lysozyme secretion LYZ.NS, 2.5-D 384-well ENR+CD organoid differentiation. Format: cell-based, mouse. The conditions noted are these: primary screen; for Z.LYZ.NS: standard z score. An excerpt:
(§1) High-throughput screening.

Assay [2] shares this test system. In words: Primary screen: CCh-stimulated lysozyme secretion LYZ.S, 2.5-D 384-well ENR+CD organoid differentiation. Format: cell-based, mouse. The conditions noted are these: primary screen.
Description: as §1

For another assay, the system named is ENR+CD organoids. Kind of assay: Primary screen: ATP (CellTiter-Glo 3D, CTG) cell number/viability, 2.5-D 384-well ENR+CD organoids.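 As to all read-outs here: compounds given at plating and again on day 3 over a 6-day differentiation from ENR+CV stem-cell-enriched precursors, ATP measured on day 6, plate median as control.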 The conditions noted are these: primary screen; for Z.CTG: standard z score.

As for `CC(C)OC(=O)C1=CN(C(=O)c2ccc(F)c(F)c2)CC(C)(C)c2c1[nH]c1ccccc21` [XL335], the Dose.FC.LYZ.NS in assay [1] (dose 0.08 uM) is reported as 0.175 log2 fold change; in assay [1] (dose 0.40 uM) it was −0.082 log2 fold change; in assay [1] (dose 2.00 uM), −0.072 log2 fold change; in assay [1] (dose 10.00 uM) it was −0.135 log2 fold change. For the same compound, the “Z.LYZ.NS (standard z score)” value is 1.523 in assay [1] (dose 0.08 uM), −0.711 in assay [1] (dose 0.40 uM), −0.625 in assay [1] (dose 2.00 uM) and −1.176 in assay [1] (dose 10.00 uM). Besides, the Dose.FC.LYZ.S in assay [2] (dose 0.08 uM) is recorded as 0.093 log2 fold change; in assay [2] (dose 0.40 uM) it was −0.109 log2 fold change; in assay [2] (dose 2.00 uM), 0.045 log2 fold change; in assay [2] (dose 10.00 uM), −0.180 log2 fold change. For the same compound, the Dose.FC.CTG in the assay on ENR+CD organoids (dose 0.08 uM) is reported as 0.124 log2 fold change; in the assay on ENR+CD organoids (dose 0.40 uM), −0.258 log2 fold change; in the assay on ENR+CD organoids (dose 2.00 uM) it was −0.259 log2 fold change; in the assay on ENR+CD organoids (dose 10.00 uM), −0.156 log2 fold change.

For `O=C(c1ccc(Nc2nccc(-c3cc4ccccc4s3)n2)cc1)N1CCC(N2CCCC2)CC1` [IKK-16 (IKK Inhibitor VII)], the “Dose.FC.LYZ.NS (log2 fold change)” value in assay [1] (dose 0.08 uM) is 0.104; in assay [1] (dose 0.40 uM) it was 0.020; in assay [1] (dose 2.00 uM), −0.081; in assay [1] (dose 10.00 uM), −0.291. Moreover, the “Z.LYZ.NS (standard z score)” value in assay [1] (dose 0.08 uM) was 0.903; in assay [1] (dose 0.40 uM), 0.176; in assay [1] (dose 2.00 uM), −0.708; in assay [1] (dose 10.00 uM) it was −2.531. Also, the “Dose.FC.LYZ.S (log2 fold change)” value was 0.092 in assay [2] (dose 0.08 uM), 0.028 in assay [2] (dose 0.40 uM), −0.142 in assay [2] (dose 2.00 uM) and −0.383 in assay [2] (dose 10.00 uM). The “Dose.FC.CTG (log2 fold change)” value in the assay with ENR+CD organoids (dose 0.08 uM) was 0.058; with ENR+CD organoids (dose 0.40 uM), −0.051; in the assay with ENR+CD organoids (dose 2.00 uM), −0.431; in the assay on ENR+CD organoids (dose 10.00 uM) it was −0.950. Also, the “Z.CTG (standard z score)” value in the assay on ENR+CD organoids (dose 0.08 uM) is 0.139; in the assay on ENR+CD organoids (dose 0.40 uM), −0.122; in the assay on ENR+CD organoids (dose 2.00 uM), −1.029; in the assay with ENR+CD organoids (dose 10.00 uM), −2.268.

On to `NC(=O)C1CCCc2c1[nH]c1ccc(Cl)cc21` (stereo not shown) [EX 527 (Selisistat)], for which the Dose.FC.LYZ.NS came out at 0.100 log2 fold change in assay [1] (dose 0.08 uM), 0.059 log2 fold change in assay [1] (dose 0.40 uM), 0.030 log2 fold change in assay [1] (dose 2.00 uM) and 0.057 log2 fold change in assay [1] (dose 10.00 uM). Also, the Z.LYZ.NS was 0.871 in assay [1] (dose 0.08 uM), 0.512 in assay [1] (dose 0.40 uM), 0.261 in assay [1] (dose 2.00 uM) and 0.494 in assay [1] (dose 10.00 uM). Further, the Dose.FC.LYZ.S is recorded as 0.062 log2 fold change in assay [2] (dose 0.08 uM), 0.047 log2 fold change in assay [2] (dose 0.40 uM), −0.051 log2 fold change in assay [2] (dose 2.00 uM) and −0.011 log2 fold change in assay [2] (dose 10.00 uM). Further, the Dose.FC.CTG in the assay on ENR+CD organoids (dose 0.08 uM) amounted to 0.240 log2 fold change; with ENR+CD organoids (dose 0.40 uM), 0.174 log2 fold change; with ENR+CD organoids (dose 2.00 uM), 0.341 log2 fold change; with ENR+CD organoids (dose 10.00 uM), 0.320 log2 fold change. Also, the Z.CTG in the assay on ENR+CD organoids (dose 0.08 uM) amounted to 0.574; with ENR+CD organoids (dose 0.40 uM) it was 0.415; with ENR+CD organoids (dose 2.00 uM), 0.814; in the assay on ENR+CD organoids (dose 10.00 uM), 0.766.

On to `CC1=C(C(=O)Nc2cc3cn[nH]c3cc2F)C(c2ccc(C(F)(F)F)cc2)CC(=O)N1` (stereo not shown) [GSK429286A], for which the “Dose.FC.LYZ.NS (log2 fold change)” value in assay [1] (dose 0.08 uM) came out at 0.137; in assay [1] (dose 0.40 uM) it was 0.128; in assay [1] (dose 2.00 uM), 0.140; in assay [1] (dose 10.00 uM), 0.059. Further, the “Z.LYZ.NS (standard z score)” value in assay [1] (dose 0.08 uM) amounted to 1.197; in assay [1] (dose 0.40 uM) it was 1.117; in assay [1] (dose 2.00 uM) it was 1.222; in assay [1] (dose 10.00 uM), 0.517. Also, the “Dose.FC.LYZ.S (log2 fold change)” value in assay [2] (dose 0.08 uM) is listed as 0.247; in assay [2] (dose 0.40 uM) it was 0.283; in assay [2] (dose 2.00 uM) it was 0.245; in assay [2] (dose 10.00 uM), 0.099. The “Dose.FC.CTG (log2 fold change)” value in the assay with ENR+CD organoids (dose 0.08 uM) is 0.527; in the assay with ENR+CD organoids (dose 0.40 uM), 0.545; in the assay on ENR+CD organoids (dose 2.00 uM) it was 0.488; in the assay on ENR+CD organoids (dose 10.00 uM), 0.370. The “Z.CTG (standard z score)” value was 1.260 in the assay on ENR+CD organoids (dose 0.08 uM), 1.302 with ENR+CD organoids (dose 0.40 uM), 1.166 with ENR+CD organoids (dose 2.00 uM) and 0.883 in the assay on ENR+CD organoids (dose 10.00 uM).

As for `CC1(C)CCC(c2ccc(Cl)cc2)=C(CN2CCN(c3ccc(C(=O)NS(=O)(=O)c4ccc(N[C@H](CCN5CCOCC5)CSc5ccccc5)c(S(=O)(=O)C(F)(F)F)c4)cc3)CC2)C1` [ABT-263 (Navitoclax)], the Dose.FC.LYZ.NS in assay [1] (dose 0.08 uM) is 0.012 log2 fold change; in assay [1] (dose 0.40 uM) it was 0.007 log2 fold change; in assay [1] (dose 2.00 uM) it was −0.143 log2 fold change; in assay [1] (dose 10.00 uM) it was −0.259 log2 fold change. Besides, the “Z.LYZ.NS (standard z score)” value in assay [1] (dose 0.08 uM) is given as 0.104; in assay [1] (dose 0.40 uM), 0.062; in assay [1] (dose 2.00 uM), −1.248; in assay [1] (dose 10.00 uM) it was −2.259. Further, the Dose.FC.LYZ.S in assay [2] (dose 0.08 uM) is recorded as −0.010 log2 fold change; in assay [2] (dose 0.40 uM), −0.020 log2 fold change; in assay [2] (dose 2.00 uM), −0.205 log2 fold change; in assay [2] (dose 10.00 uM) it was −0.400 log2 fold change. Further, the Dose.FC.CTG with ENR+CD organoids (dose 0.08 uM) is −0.212 log2 fold change; in the assay on ENR+CD organoids (dose 0.40 uM) it was −0.264 log2 fold change; in the assay with ENR+CD organoids (dose 2.00 uM) it was −0.368 log2 fold change; with ENR+CD organoids (dose 10.00 uM), −0.962 log2 fold change. Moreover, the “Z.CTG (standard z score)” value was −0.507 in the assay with ENR+CD organoids (dose 0.08 uM), −0.631 in the assay with ENR+CD organoids (dose 0.40 uM), −0.878 with ENR+CD organoids (dose 2.00 uM) and −2.298 in the assay on ENR+CD organoids (dose 10.00 uM).

As for `COc1cc(F)c(C(C)C)cc1-c1ccc(C(F)(F)F)cc1CN1C(=O)O[C@H](c2cc(C(F)(F)F)cc(C(F)(F)F)c2)[C@@H]1C` [Anacetrapib (MK-0859)], the Dose.FC.LYZ.NS is recorded as 0.013 log2 fold change in assay [1] (dose 0.08 uM), 0.007 log2 fold change in assay [1] (dose 0.40 uM), −0.015 log2 fold change in assay [1] (dose 2.00 uM) and −0.036 log2 fold change in assay [1] (dose 10.00 uM). In addition, the “Z.LYZ.NS (standard z score)” value is on record as 0.112 in assay [1] (dose 0.08 uM), 0.060 in assay [1] (dose 0.40 uM), −0.129 in assay [1] (dose 2.00 uM) and −0.314 in assay [1] (dose 10.00 uM). Besides, the Dose.FC.LYZ.S is 0.051 log2 fold change in assay [2] (dose 0.08 uM), −0.002 log2 fold change in assay [2] (dose 0.40 uM), −0.046 log2 fold change in assay [2] (dose 2.00 uM) and −0.036 log2 fold change in assay [2] (dose 10.00 uM). In addition, the Dose.FC.CTG in the assay with ENR+CD organoids (dose 0.08 uM) was −0.090 log2 fold change; in the assay on ENR+CD organoids (dose 0.40 uM) it was 0.035 log2 fold change; in the assay with ENR+CD organoids (dose 2.00 uM) it was −0.094 log2 fold change; in the assay with ENR+CD organoids (dose 10.00 uM), 0.031 log2 fold change. Also, the “Z.CTG (standard z score)” value in the assay with ENR+CD organoids (dose 0.08 uM) is reported as −0.214; with ENR+CD organoids (dose 0.40 uM), 0.084; in the assay on ENR+CD organoids (dose 2.00 uM), −0.225; in the assay with ENR+CD organoids (dose 10.00 uM), 0.075.

Regarding `Cl.N[C@@H]1C[C@H]1c1ccccc1` (racemic) [Tranylcypromine (2-PCPA) HCl], the Dose.FC.LYZ.NS in assay [1] (dose 0.08 uM) is recorded as 0.033 log2 fold change; in assay [1] (dose 0.40 uM), −0.049 log2 fold change; in assay [1] (dose 2.00 uM), 0.049 log2 fold change; in assay [1] (dose 10.00 uM), −0.045 log2 fold change. Also, the “Z.LYZ.NS (standard z score)” value in assay [1] (dose 0.08 uM) is recorded as 0.285; in assay [1] (dose 0.40 uM), −0.426; in assay [1] (dose 2.00 uM), 0.423; in assay [1] (dose 10.00 uM) it was −0.389. Moreover, the Dose.FC.LYZ.S in assay [2] (dose 0.08 uM) is 0.050 log2 fold change; in assay [2] (dose 0.40 uM), −0.037 log2 fold change; in assay [2] (dose 2.00 uM) it was 0.036 log2 fold change; in assay [2] (dose 10.00 uM), −0.096 log2 fold change. In addition, the Dose.FC.CTG in the assay on ENR+CD organoids (dose 0.08 uM) is −0.064 log2 fold change; in the assay with ENR+CD organoids (dose 0.40 uM), 0.062 log2 fold change; in the assay with ENR+CD organoids (dose 2.00 uM) it was 0.053 log2 fold change; in the assay with ENR+CD organoids (dose 10.00 uM), −0.533 log2 fold change. The “Z.CTG (standard z score)” value is −0.153 in the assay with ENR+CD organoids (dose 0.08 uM), 0.148 in the assay with ENR+CD organoids (dose 0.40 uM), 0.128 in the assay on ENR+CD organoids (dose 2.00 uM) and −1.274 in the assay on ENR+CD organoids (dose 10.00 uM).
